Experimental data: PMC7647070, “Mechanisms of QT prolongation by buprenorphine cannot be explained by direct hERG channel block” (PLoS ONE, 2020)
Like-named read-outs stand apart in the source and are kept apart here.

Columns and labels:
[1] = biological target: T1, hERG1a (homomeric hERG channel, IhERG) (Homo sapiens, UniProt Q12809)
T1 construct: gene KCNH2

[2] = biological target: T2, hERG1a/1b (heteromeric hERG channel, IhERG) (Homo sapiens, UniProt Q12809)
T2 construct: gene KCNH2

[3] = biological target: T2, hERG1a/1b (heteromeric hERG channel, IhERG); test: whole-cell patch clamp, tail current
[4] = biological target: T1, hERG1a (homomeric hERG channel, IhERG); test: whole-cell patch clamp, tail current

T2 sequence (Q12809 whole entry): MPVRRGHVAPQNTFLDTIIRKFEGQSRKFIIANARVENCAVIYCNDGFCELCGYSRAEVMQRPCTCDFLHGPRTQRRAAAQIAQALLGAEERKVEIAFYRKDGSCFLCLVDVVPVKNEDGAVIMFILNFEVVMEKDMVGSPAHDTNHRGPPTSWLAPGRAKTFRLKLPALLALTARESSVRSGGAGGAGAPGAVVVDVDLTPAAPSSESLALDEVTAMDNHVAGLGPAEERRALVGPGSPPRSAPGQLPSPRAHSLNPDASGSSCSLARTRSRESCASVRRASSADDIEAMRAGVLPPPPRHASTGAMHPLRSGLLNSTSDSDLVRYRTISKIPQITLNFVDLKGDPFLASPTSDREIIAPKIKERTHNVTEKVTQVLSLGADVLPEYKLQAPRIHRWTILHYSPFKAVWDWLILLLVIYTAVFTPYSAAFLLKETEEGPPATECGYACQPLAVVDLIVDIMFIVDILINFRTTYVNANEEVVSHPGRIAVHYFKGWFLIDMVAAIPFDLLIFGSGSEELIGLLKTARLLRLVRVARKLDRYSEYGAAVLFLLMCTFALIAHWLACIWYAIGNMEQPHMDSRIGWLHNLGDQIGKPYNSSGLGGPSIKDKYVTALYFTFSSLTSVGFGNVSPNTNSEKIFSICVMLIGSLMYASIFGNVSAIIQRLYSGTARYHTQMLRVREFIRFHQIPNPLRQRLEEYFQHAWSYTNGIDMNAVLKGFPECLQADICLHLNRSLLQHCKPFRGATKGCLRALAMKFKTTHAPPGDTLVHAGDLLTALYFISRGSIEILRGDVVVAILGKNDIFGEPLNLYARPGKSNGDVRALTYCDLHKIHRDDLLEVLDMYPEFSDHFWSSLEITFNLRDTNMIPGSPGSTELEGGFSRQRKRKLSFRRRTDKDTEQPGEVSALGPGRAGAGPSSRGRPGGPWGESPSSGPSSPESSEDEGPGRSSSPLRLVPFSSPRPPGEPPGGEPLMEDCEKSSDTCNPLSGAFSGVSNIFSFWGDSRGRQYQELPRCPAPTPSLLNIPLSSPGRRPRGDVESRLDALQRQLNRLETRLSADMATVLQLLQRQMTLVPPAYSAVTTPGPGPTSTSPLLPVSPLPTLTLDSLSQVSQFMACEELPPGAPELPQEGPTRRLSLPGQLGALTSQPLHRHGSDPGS
T2 sequence (Q12809 377-1159 limits assumed): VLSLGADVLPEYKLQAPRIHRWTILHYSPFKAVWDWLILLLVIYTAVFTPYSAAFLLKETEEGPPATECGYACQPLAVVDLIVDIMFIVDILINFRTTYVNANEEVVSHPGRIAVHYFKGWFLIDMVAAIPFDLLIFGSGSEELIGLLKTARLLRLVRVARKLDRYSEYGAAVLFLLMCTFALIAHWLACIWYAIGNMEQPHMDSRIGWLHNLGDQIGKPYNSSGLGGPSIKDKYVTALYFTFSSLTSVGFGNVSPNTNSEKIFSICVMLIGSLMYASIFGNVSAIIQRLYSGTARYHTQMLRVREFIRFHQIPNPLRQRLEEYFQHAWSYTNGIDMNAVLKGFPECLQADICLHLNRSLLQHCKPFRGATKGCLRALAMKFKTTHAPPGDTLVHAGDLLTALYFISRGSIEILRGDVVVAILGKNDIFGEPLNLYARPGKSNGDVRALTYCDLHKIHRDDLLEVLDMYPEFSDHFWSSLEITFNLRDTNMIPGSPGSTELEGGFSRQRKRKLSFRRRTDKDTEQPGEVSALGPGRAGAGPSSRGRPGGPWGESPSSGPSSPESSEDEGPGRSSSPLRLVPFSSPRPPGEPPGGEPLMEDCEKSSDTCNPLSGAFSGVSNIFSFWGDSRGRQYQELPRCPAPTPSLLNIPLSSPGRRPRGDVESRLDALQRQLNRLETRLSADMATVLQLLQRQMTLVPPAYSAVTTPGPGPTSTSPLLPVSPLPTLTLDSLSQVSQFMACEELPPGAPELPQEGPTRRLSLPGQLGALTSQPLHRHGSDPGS
T1 sequence (Q12809 whole entry): as the sequence (Q12809 whole entry) above

Row | SMILES | IC50 [1] [µM] | IC50 [2] [µM] | IC50 [3] [µM] | IC50 [4] [µM]
1 | CO[C@]12CC[C@@]3(C[C@@H]1[C@](C)(O)C(C)(C)C)[C@H]1Cc4ccc(O)c5c4[C@@]3(CCN1CC1CC1)[C@H]2O5 [Buprenorphine] | 8.7 ± 0.4 | 6.9 ± 0.9 | – | –
2 | O=C1CC[C@@]2(O)[C@H]3Cc4ccc(O)c5c4[C@@]2(CCN3CC2CC2)[C@H]1O5 [Naltrexone] | – | – | 32.3 ± 8.6 | 31.1 ± 5.4
